The record followed here is patent US8871796B2, “Diaryl ether derivatives as notch sparing gamma secretase inhibitors” (Merck Sharp & Dohme Corp., priority 2009, dated 2014).

Data set [1] in a line: Pharmacokinetics in rats, IV or PO dosing, plasma LC-MS/MS. The settings on record: for clearance / bioavailability / half-life: Sprague Dawley; for clearance: intravenous, read-out: Rat Cl; for AUC(Norm)(0-x): dose-normalised. It is filed as in vivo, Sprague Dawley rats. As for the experimental part:
Pharmacokinetic parameters are determined in Sprague Dawley rats, Beagle dogs or Rhesus monkeys by dosing the compounds intravenously (IV) or orally (PO). A dose of 0.25 mg/kg is administered either IV or PO to each subject with a dosing solution of 0.25 mg/ml in a 30:70 v/v mixture of PEG400:40% Captisol®. Plasma samples are collected at 5 min. (IV only), 15 min., 30 min., 1 h, 2 h, 4 h, 6 h, 8 h, 24 h, 48 h, 72 h, 96 h, 120 h, 144 h, and 168 h. Samples are analyzed by LC-MS/MS (API5000™) to determine the concentration in plasma. Briefly, 50 μL plasma is precipitated with 200 μL acetonitrile containing an appropriate internal standard. Samples are filtered, 500 pt of water is added to each sample and 10 μl, of this is injected on a C18 column (2.0 mm×30 mm, 3 μm particle size) and eluted using a gradient LC method with water containing 0.1% formic acid as the aqueous mobile phase, and acetonitrile containing 0.1% formic acid as the organic phase. Electrospray ionization with multiple reaction monitoring is used for MS/MS detection. Plasma concentration of the compounds is determined using a standard curve that was prepared similar to the samples in the respective matrix. Non-compartmental analysis is performed using Watson 7.2 to generate the PK parameters.

The nature of data set [2]: APP processing: AlphaLisa assay of secreted Aβ40 and Aβ42 from SP4CT cells. It is filed as cell-based. The settings on record: Homo sapiens, SH-SY5Y cells expressing amyloid β protein (SP4CT cells). The method in brief:
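Media from compound-treated SP4CT cells (SH-SY5Y expressing amyloid β protein) was assayed by AlphaLisa. Donor beads carried biotinylated 4G8 anti-Aβ antibody; acceptor beads carried G210 (Aβ40) or 12F4 (Aβ42) in separate plates, with luminescence proportional to peptide abundance.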
(Alpha assays give light when donor and acceptor beads are brought close together.)

Where [3] appears, read: plasma, rat, 0.25 mg/kg IV or PO.
[4] abbreviates: read-out: IC50, inhibition of production of Aβ40 peptide.
The mark [5] stands for this setting: read-out: IC50, inhibition of production of Aβ42 peptide.

Read-outs that look alike come from different tables or passages of the source. Where only a bound is given, the exact number is not on record here.

In the case of `CCn1nc(COc2ccc(F)cc2)cc1-c1cccc(C(C)(C)NS(=O)(=O)NC2CCC2)c1` [Example 2 from WO 2004/089911 A1, reference compound], in data set [1] (rat, 0.25 mg/kg, plasma), the clearance is 43 mL/min/kg; the half-life – broadly, the time in which the quantity being followed falls by half – is 2.3 h; the “AUC(Norm)(0-x)” value amounted to 0.79 µM·kg·h/mg. In addition, the bioavailability (in general, dose-corrected exposure relative to a reference, in per cent) in data set [1] (setting [3]) is 9%.

Take `CCn1nc(Oc2ccc(C(F)(F)F)cc2)cc1-c1cccc(C(C)(C)NS(=O)(=O)NCC(F)(F)F)c1` [Example 19, N-[1-(3-{1-ethyl-3-[4-(trifluoromethyl)phenoxy]-1H-pyrazol-5-yl}phenyl)-1-methylethyl]-N′-(2,2,2-trifluoroethyl)sulfamide]: in data set [1] (rat, 0.25 mg/kg, plasma), the clearance worked out at 31 mL/min/kg, the half-life is 9 h and the “AUC(Norm)(0-x)” value came to 0.96 µM·kg·h/mg. The bioavailability in data set [1] (setting [3]) turned out to be 75%. Besides, in data set [2] (setting [4]), the IC50 (usually the concentration needed to halve the response being measured) is less than 200 nM. The IC50 in data set [2] (setting [5]) was less than 200 nM.

For `CCn1nc(-c2cccc(C(C)(C)NS(=O)(=O)CC(F)(F)F)c2)cc1CN1CCC(C(F)(F)F)CC1` [Example 23 from WO 2004/089911 A1, reference compound], in data set [1] (rat, 0.25 mg/kg, plasma), the clearance came to 120 mL/min/kg, the half-life was 5.4 h and the “AUC(Norm)(0-x)” value was determined as 0.25 µM·kg·h/mg.

Regarding `CCn1nc(COc2ccc(C#N)cc2)cc1-c1cccc(C(C)(C)NS(=O)(=O)NC(F)(F)F)c1` [Example 27 from WO 2004/089911 A1, reference compound], in data set [1] (rat, 0.25 mg/kg, plasma), the clearance is 35 mL/min/kg, the half-life is 4.8 h and the “AUC(Norm)(0-x)” value stood at 0.92 µM·kg·h/mg. The bioavailability in data set [1] (setting [3]) is 28%.

In the case of `CCn1nc(-c2cccc(C3(NS(=O)(=O)NCC(F)(F)F)COC3)c2)cc1Oc1ccc(C(F)(F)F)cc1` [Example 96, N-[3-(3-{1-ethyl-5-[4-(trifluoromethyl)phenoxy]-1H-pyrazol-3-yl}phenyl)oxetan-3-yl]-N′-(2,2,2-trifluoroethyl)sulfamide], in data set [1] (rat, 0.25 mg/kg, plasma), the clearance is 41 mL/min/kg, the half-life was 2.8 h and the “AUC(Norm)(0-x)” value is 0.09 µM·kg·h/mg. Also, the bioavailability in data set [1] (setting [3]) is 12%. Further, the IC50 in data set [2] (setting [4]) was less than 200 nM. In data set [2] (setting [5]), the IC50 is less than 200 nM.

Regarding `O=C(Cn1nc(-c2cccc(C3(NS(=O)(=O)CC(F)(F)F)COC3)c2)cc1Oc1ccc(C(F)(F)F)cc1)N1CCOCC1` [Example 133, N-[3-(3-{5-(4-trifluoromethylphenoxy)-1-[2-oxo-2-(morpholin-4-yl)ethyl]-1H-pyrazol-3-yl}phenyl)oxetan-3-yl]- ,2,2,2-trifluoroethanesulfonamide], the IC50 in data set [2] (setting [4]) and in data set [2] (setting [5]) was less than 200 nM throughout.

In the case of `O=S(=O)(CC(F)(F)F)NC1(c2cccc(-c3cc(Oc4ccc(C(F)(F)F)cc4)n(Cc4cocn4)n3)c2)COC1` [Example 134, N-(3-{3-[5-(4-trifluoromethylphenoxy)-1-(1,3-oxazol-4-ylmethyl)-1H-pyrazol-3-yl]phenyl}oxetan-3-yl)-2,2,2-trifluoroethanesulfonamide], the IC50 in data set [2] (setting [4]) and in data set [2] (setting [5]) was less than 200 nM throughout.

`O=S(=O)(CC(F)(F)F)NC1(c2cccc(-c3cc(Oc4ccc(C(F)(F)F)cc4)nn3Cc3cocn3)c2)COC1` [Example 135, N-(3-{3-[3-(4-trifluoromethylphenoxy)-1-(1,3-oxazol-4-ylmethyl)-1H-pyrazol-5-yl]phenyl}oxetan-3-yl)-2,2,2-trifluoroethanesulfonamide]: the IC50 in data set [2] (setting [4]) and in data set [2] (setting [5]) was less than 200 nM in each case.

As to `Cc1nnc(Cn2nc(-c3cccc(C4(NS(=O)(=O)CC(F)(F)F)COC4)c3)cc2Oc2ccc(C(F)(F)F)cc2)o1` [Example 136, N-(3-{3-[5-(4-trifluoromethylphenoxy)-1-(5-methyl-1,3,4-oxadiazol-2-ylmethyl)-1H-pyrazol-3-yl]phenyl}oxetan-3-yl)-2,2,2-trifluoroethanesulfonamide], the IC50 in data set [2] (setting [4]) and in data set [2] (setting [5]) was less than 200 nM in each case.

On to `Cc1cc(Cn2nc(-c3cccc(C4(NS(=O)(=O)CC(F)(F)F)COC4)c3)cc2Oc2ccc(C(F)(F)F)cc2)on1` [Example 137, N-(3-{3-[5-(4-trifluoromethylphenoxy)-1-(5-methyl-1,2-isoxazol-3-ylmethyl)-1H-pyrazol-3-yl]phenyl}oxetan-3-yl)-2,2,2-trifluoroethanesulfonamide], for which the IC50 in data set [2] (setting [4]) and in data set [2] (setting [5]) was less than 200 nM each time.

With `O=S(=O)(CC(F)(F)F)NC1(c2cccc(-c3cc(Oc4ccc(C(F)(F)F)cc4)n(CC4CCCO4)n3)c2)COC1` (centres unmarked) [Example 138, N-(3-{3-[5-(4-trifluoromethylphenoxy)-1-(tetrahydrofuran-2-ylmethyl)-1H-pyrazol-3-yl]phenyl}oxetan-3-yl)-2,2,2-trifluoroethanesulfonamide], the IC50 in data set [2] (setting [4]) and in data set [2] (setting [5]) was less than 200 nM in each case.

As to `O=S(=O)(CC(F)(F)F)NC1(c2cccc(-c3cc(Oc4ccc(C(F)(F)F)cc4)n(CC4CCOCC4)n3)c2)COC1` [Example 139, N-(3-{3-[5-(4-trifluoromethylphenoxy)-1-(tetrahydro-2H-pyran-4-ylmethyl)-1H-pyrazol-3-yl]phenyl}oxetan-3-yl)-2,2,2-trifluoroethanesulfonamide], the IC50 in data set [2] (setting [4]) and in data set [2] (setting [5]) was less than 200 nM each time.

Regarding `O=S(=O)(CC(F)(F)F)NC1(c2cccc(-c3cc(Oc4ccc(C(F)(F)F)cc4)n(CC4CCCCO4)n3)c2)COC1` (centres unmarked) [Example 140], the IC50 in data set [2] (setting [4]) and in data set [2] (setting [5]) was less than 200 nM each time.

In the case of `COCCn1nc(-c2cccc(C3(NS(=O)(=O)CC(F)(F)F)COC3)c2)cc1Oc1ccc(C(F)(F)F)cc1` [Example 141, N-(3-{3-[5-(4-trifluoromethylphenoxy)-1-(2-methoxyethyl)-1H-pyrazol-2-yl]phenyl}oxetan-3-yl)-2,2,2-trifluoroethanesulfonamide], the IC50 in data set [2] (setting [4]) and in data set [2] (setting [5]) was less than 200 nM in each case.

Regarding `COCCCn1nc(-c2cccc(C3(NS(=O)(=O)CC(F)(F)F)COC3)c2)cc1Oc1ccc(C(F)(F)F)cc1` [Example 142], the IC50 in data set [2] (setting [4]) and in data set [2] (setting [5]) was less than 200 nM throughout.

Regarding “N-(1-{3-[1-ethyl-3-(4-fluorophenoxy)-1H-pyrazol-5-yl]phenyl}-1-methylethyl)-2,2,2-trifluoroethanesulfonamide [Example 53]”, the “Rat Cl” value in data set [1] (0.25 mg/kg, plasma) was determined as 1 mL/min/kg. Also, in data set [1] (rat, 0.25 mg/kg IV or PO), the “% F” value was 70%. In addition, in data set [1] (rat, 0.25 mg/kg, plasma), the “AUC(Norm)(0-x)” value stood at 35 µM·kg·h/mg and the t1/2 was 16 h.
